# Test results published in ChEMBL document CHEMBL3044826, “Design, synthesis and biological evaluation of some novel substituted 2-mercapto-3-phenethylquinazolines as antitumor agents” (2013).
# What was measured:
# Format in all cases: functional
# RXF 393 = test: Cytotoxicity against Homo sapiens (human) RXF393 cells assessed as growth inhibition at 10 uM after 48 hr by coulter counter analysis; settings: RXF 393, 48 h, read-out: GI
# OVCAR-3 = test: Cytotoxicity against Homo sapiens (human) OVCAR3 cells assessed as growth inhibition at 10 uM after 48 hr by coulter counter analysis; settings: OVCAR-3, 48 h, read-out: GI
# SNB-19 = test: Cytotoxicity against Homo sapiens (human) SNB19 cells assessed as growth inhibition at 10 uM after 48 hr by coulter counter analysis; settings: SNB-19, 48 h, read-out: GI
# MDA-MB-468 = test: Cytotoxicity against Homo sapiens (human) MDA-MB-468 cells assessed as growth inhibition at 10 uM after 48 hr by coulter counter analysis; settings: MDA-MB-468, 48 h, read-out: GI
# DU-145 = test: Cytotoxicity against Homo sapiens (human) DU145 cells assessed as growth inhibition at 10 uM after 48 hr by coulter counter analysis; settings: DU-145, 48 h, read-out: GI
# A549 = test: Cytotoxicity against Homo sapiens (human) A549 cells assessed as growth inhibition at 10 uM after 48 hr by coulter counter analysis; settings: A549, 48 h, read-out: GI
# SF-539 = test: Cytotoxicity against Homo sapiens (human) SF539 cells assessed as growth inhibition at 10 uM after 48 hr by coulter counter analysis; settings: SF-539, 48 h, read-out: GI
# SF-268 = test: Cytotoxicity against Homo sapiens (human) SF268 cells assessed as growth inhibition at 10 uM after 48 hr by coulter counter analysis; settings: SF-268, 48 h, read-out: GI
# MCF7 = test: Cytotoxicity against Homo sapiens (human) MCF7 cells assessed as growth inhibition at 10 uM after 48 hr by coulter counter analysis; settings: MCF7, 48 h, read-out: GI
# KM12 = test: Cytotoxicity against Homo sapiens (human) KM12 cells assessed as growth inhibition at 10 uM after 48 hr by coulter counter analysis; settings: KM12, 48 h, read-out: GI
# MDA-MB-435 = test: Cytotoxicity against Homo sapiens (human) MDA-MB-435 cells assessed as growth inhibition at 10 uM after 48 hr by coulter counter analysis; settings: MDA-MB-435, 48 h, read-out: GI
# SNB-75 = test: Cytotoxicity against Homo sapiens (human) SNB75 cells assessed as growth inhibition at 10 uM after 48 hr by coulter counter analysis; settings: SNB-75, 48 h, read-out: GI
# OVCAR-8 = test: Cytotoxicity against Homo sapiens (human) OVCAR8 cells assessed as growth inhibition at 10 uM after 48 hr by coulter counter analysis; settings: OVCAR-8, 48 h, read-out: GI
# HT-29 = test: Cytotoxicity against Homo sapiens (human) HT-29 cells assessed as growth inhibition at 10 uM after 48 hr by coulter counter analysis; settings: HT-29, 48 h, read-out: GI
# SN12C = test: Cytotoxicity against Homo sapiens (human) SN12C cells assessed as growth inhibition at 10 uM after 48 hr by coulter counter analysis; settings: read-out: GI
# EKVX = test: Cytotoxicity against Homo sapiens (human) EKVX cells assessed as growth inhibition at 10 uM after 48 hr by coulter counter analysis; settings: read-out: GI
# MDA-MB-231 = test: Cytotoxicity against Homo sapiens (human) MDA-MB-231 cells assessed as growth inhibition at 10 uM after 48 hr by coulter counter analysis; settings: MDA-MB-231, 48 h, read-out: GI
# SW-620 = test: Cytotoxicity against Homo sapiens (human) SW620 cells assessed as growth inhibition at 10 uM after 48 hr by coulter counter analysis; settings: SW-620, 48 h, read-out: GI
# HCT-116 = test: Cytotoxicity against Homo sapiens (human) HCT116 cells assessed as growth inhibition at 10 uM after 48 hr by coulter counter analysis; settings: HCT-116, 48 h, read-out: GI
# Malme-3M = test: Cytotoxicity against Homo sapiens (human) MALME-3M cells assessed as growth inhibition at 10 uM after 48 hr by coulter counter analysis; settings: read-out: GI
# NCI-H23 = test: Cytotoxicity against Homo sapiens (human) NCI-H23 cells assessed as growth inhibition at 10 uM after 48 hr by coulter counter analysis; settings: NCI-H23, 48 h, read-out: GI
# ACHN = test: Cytotoxicity against Homo sapiens (human) ACHN cells assessed as growth inhibition at 10 uM after 48 hr by coulter counter analysis; settings: read-out: GI
# BT-549 = test: Cytotoxicity against Homo sapiens (human) BT549 cells assessed as growth inhibition at 10 uM after 48 hr by coulter counter analysis; settings: BT-549, 48 h, read-out: GI
# LOX IMVI = test: Cytotoxicity against Homo sapiens (human) LOXIMVI cells assessed as growth inhibition at 10 uM after 48 hr by coulter counter analysis; settings: read-out: GI
# OVCAR-4 = test: Cytotoxicity against Homo sapiens (human) OVCAR4 cells assessed as growth inhibition at 10 uM after 48 hr by coulter counter analysis; settings: OVCAR-4, 48 h, read-out: GI
# HOP-62 = test: Cytotoxicity against Homo sapiens (human) HOP62 cells assessed as growth inhibition at 10 uM after 48 hr by coulter counter analysis; settings: HOP-62, 48 h, read-out: GI
# HCT-15 = test: Cytotoxicity against Homo sapiens (human) HCT15 cells assessed as growth inhibition at 10 uM after 48 hr by coulter counter analysis; settings: HCT-15, 48 h, read-out: GI
# PC-3 = test: Cytotoxicity against Homo sapiens (human) PC3 cells assessed as growth inhibition at 10 uM after 48 hr by coulter counter analysis; settings: PC-3, 48 h, read-out: GI
# TK-10 = test: Cytotoxicity against Homo sapiens (human) TK10 cells assessed as growth inhibition at 10 uM after 48 hr by coulter counter analysis; settings: TK-10, 48 h, read-out: GI
# SK-MEL-28 = test: Cytotoxicity against Homo sapiens (human) SK-MEL-28 cells assessed as growth inhibition at 10 uM after 48 hr by coulter counter analysis; settings: SK-MEL-28, 48 h, read-out: GI
# OVCAR-5 = test: Cytotoxicity against Homo sapiens (human) OVCAR5 cells assessed as growth inhibition at 10 uM after 48 hr by coulter counter analysis; settings: OVCAR-5, 48 h, read-out: GI
# SK-OV-3 = test: Cytotoxicity against Homo sapiens (human) SKOV3 cells assessed as growth inhibition at 10 uM after 48 hr by coulter counter analysis; settings: SK-OV-3, 48 h, read-out: GI
# CAKI-1 = test: Cytotoxicity against Homo sapiens (human) Caki1 cells assessed as growth inhibition at 10 uM after 48 hr by coulter counter analysis; settings: CAKI-1, 48 h, read-out: GI
# M14 = test: Cytotoxicity against Homo sapiens (human) M14 cells assessed as growth inhibition at 10 uM after 48 hr by coulter counter analysis; settings: M14, 48 h, read-out: GI
smiles,measurement,setting,value
CSc1nc2ccccc2c(=O)n1CCc1ccccc1,inhibition of growth at 10 µM,RXF 393,30%
same,inhibition of growth at 10 µM,OVCAR-3,< 10%
same,inhibition of growth at 10 µM,SNB-19,< 10%
same,inhibition of growth at 10 µM,MDA-MB-468,84%
same,inhibition of growth at 10 µM,DU-145,< 10%
same,inhibition of growth at 10 µM,A549,12%
same,inhibition of growth at 10 µM,SF-539,< 10%
same,inhibition of growth at 10 µM,SF-268,< 10%
same,inhibition of growth at 10 µM,MCF7,34%
same,inhibition of growth at 10 µM,KM12,28%
same,inhibition of growth at 10 µM,MDA-MB-435,47%
same,inhibition of growth at 10 µM,SNB-75,< 10%
same,inhibition of growth at 10 µM,OVCAR-8,< 10%
same,inhibition of growth at 10 µM,HT-29,< 10%
same,inhibition of growth at 10 µM,SN12C,< 10%
same,inhibition of growth at 10 µM,EKVX,29%
same,inhibition of growth at 10 µM,MDA-MB-231,30%
same,inhibition of growth at 10 µM,SW-620,12%
same,inhibition of growth at 10 µM,HCT-116,37%
same,inhibition of growth at 10 µM,Malme-3M,< 10%
same,inhibition of growth at 10 µM,NCI-H23,16%
same,inhibition of growth at 10 µM,ACHN,34%
same,inhibition of growth at 10 µM,BT-549,< 10%
same,inhibition of growth at 10 µM,LOX IMVI,11%
same,inhibition of growth at 10 µM,OVCAR-4,21%
same,inhibition of growth at 10 µM,HOP-62,12%
same,inhibition of growth at 10 µM,HCT-15,39%
same,inhibition of growth at 10 µM,PC-3,33%
same,inhibition of growth at 10 µM,TK-10,< 10%
same,inhibition of growth at 10 µM,SK-MEL-28,< 10%
same,inhibition of growth at 10 µM,OVCAR-5,< 10%
same,inhibition of growth at 10 µM,SK-OV-3,< 10%
same,inhibition of growth at 10 µM,CAKI-1,< 10%
same,inhibition of growth at 10 µM,M14,< 10%
